Laboratory results taken from patent US20230123334A1, “AMINO LIPID COMPOUND, PREPARATION METHOD THEREFOR, AND APPLICATION THEREOF” (SHENZHEN SHENXIN BIOTECHNOLOGY CO., LTD., priority 2020, published 2023).

Tests used:
Type in all cases: cell-based
Hela cells [1] = assay: Transfection of Hela cell line, mRNA vectors; details: 50 ng EGFP mRNA per well
Protocol: (§1) Cell line: Hela cells (ATCC 35241)
(§2) Medium: DMEM supplemented with 10% fetal bovine serum (Invitrogen)
(§3) Screening: cell transfection on 96-well plates
Detection (readout): percentage of the number of GFP fluorescent cells relative to the total number of cells (the total number of cells was determined using nucleus dye Hoechst). A commercially available liposome transfection reagent Lipofectamine2000 (Invitrogen) was used as the positive control group, according to the manufacturer's instructions.
Method: the experimental method was basically the same with Example 4, and the mass of EGFP mRNA for transfection was 50 ng per well.

MCF7 cells [2] = assay: Transfection of MCF7 cell line, DNA vectors; design: concentration or dose not given beside the values; details: plasmid DNA, GFP cells / total cells
Protocol: (§4) Cell line: MCF7 cells (ATCC HTB-22)
Medium DMEM supplemented with […] fetal bovine serum
as §3
Detection (readout): percentage of the number of GFP fluorescent cells relative to the total number of cells (the total number of cells was determined using nucleus dye Hoechst). Lipofectamine2000 was used as the positive control, according to the manufacturer's instructions.
(§5) Method: the experimental method was basically the same with Example 4.

Hela cells [3] = assay: Transfection of Hela cell line, DNA vectors; details: 75 ng plasmid DNA, GFP cells / total cells
Protocol: 1. The compound (0.01 mmol) prepared in Example 1 was dissolved in 1 mL of anhydrous ethanol. After ultrasonically dissolved, 10 μL of the resultant amino lipid solution in ethanol was taken and mixed with 5 μL of DOPE solution in ethanol (0.01 m), and then to the obtained mixture was added 35 μL of 0.2M sodium acetate buffer (pH 5.6), and 50 μL of liposome solution was prepared by vortex at a constant rotating speed for 30 s. 4 μL was taken from the 50 μL liposome solution and added to 46 μL of 0.02M sodium acetate buffer (pH 5.6), and the final liposome solution was formed by vortex at a constant rotating speed for 30 s. 5 μL was taken from the final liposome solution and mixed with 75 ng plasmid DNA (psin-EGFP-IRES-Puro, Clontech) dissolved in 5 μL of 0.02 M sodium acetate buffer, and was allowed to stay at room temperature for 30 min to form a lipid/DNA transfection complex.
2. 10 μL of the lipid/DNA transfection complex was incubated at room temperature for 30 min, followed by addition of 90 μL of fresh resuspended cells (3-5×10^4 cells) and mixing with a pipette. 100 μL of cells+lipid/DNA complex was transferred to separate wells of a 96-well culture plate immediately, and placed in an incubator containing 5% CO2 at 37° C.
3. Hoechst33258 (Invitrogen) was added at a final concentration of 0.2 μg/mL to the cells 20 to 24 hours after initial cell transfection, and cultured in darkness at 37° C. for 15 min. Afterwards, the cells were washed once with a PBS solution, and then added with medium for culture for 20 to 24 h.
4. The cells were placed in a high-throughput confocal microscope (Molecular Devices ImageXpress), and four visual fields of the image of the cells were captured for each well, and images at three laser wavelengths were captured for each sample: bright field images of cells (FIG. 2(a) and FIG. 2(b)), Hoechst-staining images showing total nuclei (FIG. 2(c) and FIG. 2(d)) and GFP images showing success in transfection with the plasmid DNA and the expression of GFP (FIG. 2(e) and FIG. 2(f)). MetaXpress software was used to separately count the cells in the Hoechst-staining images and GFP images, and then the number of cells expressing GFP was divided by the total number of nuclei to give the absolute cell transfection efficiency. The absolute transfection efficiency was calculated as follows: […]
as §1, §2, §3
Detection (readout): percentage of the number of GFP fluorescent cells relative to the total number of cells (the total number of cells was determined using nucleus dye Hoechst). Lipofectamine2000 (Invitrogen) was used as the positive control, according to the manufacturer's instructions.
as §5

MCF7 cells [4] = assay: Transfection of MCF7 cell line, mRNA vectors; details: 50 ng EGFP mRNA per well
Protocol: as §4
Medium: DMEM supplemented with 10 fetal bovine serum (Invitrogen)
as §3
Detection (readout): percentage of the number of GFP fluorescent cells relative to the total number of cells (the total number of cells was determined using nucleus dye Hoechst). Lipofectamine2000 (Invitrogen) was used as the positive control.
Method: the experimental method was basically the same with Example 4, and the mass of EGFP mRNA (TriLink) for transfection was 50 ng per well.

HEK293 cells [5] = assay: Preliminary screening as DNA vectors, GFP transfection of HEK293 cells; details: HEK293 cells; lipid/DOPE liposome with 75 ng plasmid DNA (psin-EGFP-IRES-Puro); number of cells expressing GFP divided by total number of nuclei (Hoechst)
Summary of the method: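 HEK293 cells in DMEM/10% FBS transfected with 75 ng EGFP plasmid per well complexed with amino lipid/DOPE liposomes in pH 5.6 sodium acetate. Hoechst nuclear stain added 20-24 h post-transfection, then cells cultured another 20-24 h. Confocal imaging gives GFP-positive cells as % of total nuclei.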

HEK293 cells [6] = assay: Preliminary screening as mRNA vectors, EGFP mRNA transfection of HEK293 cells; details: HEK293 cells, 96-well plates, EGFP mRNA 50 ng per well; percentage of GFP fluorescent cells relative to total number of cells (Hoechst)
Summary of the method: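 HEK293 cells in DMEM plus 10% FBS transfected in 96-well format with 50 ng EGFP mRNA per well; Lipofectamine2000 served as positive control. Read-out is the percentage of GFP-fluorescent cells among total cells, counted by Hoechst nuclear stain.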

SMILES	Absolute mRNA transfection efficiency in Hela cells (Hela cells [1])	Absolute DNA transfection efficiency in MCF7 cells (MCF7 cells [2])	Absolute DNA transfection efficiency in Hela cells (Hela cells [3])	Absolute mRNA transfection efficiency in MCF7 cells (MCF7 cells [4])	Absolute DNA transfection efficiency in HEK293 cells (HEK293 cells [5])	Absolute mRNA transfection efficiency in HEK293 cells (HEK293 cells [6])
CCCCCCCCCCCCNc1nc(NCCCN2CCOCC2)nc(SCCCCCCCC)n1 [Compound S8N12D8]	8.4%	2.1%	8.4%	0.3%		
CCCCCCCCCCCCSc1nc(NCCCN2CCOCC2)nc(SCCCCCCC)n1 [Compound S7S12D8]	5.4%	11.5%	5.4%	24.0%		
CCCCCCCCCCCCCNc1nc(NCCCN2CCN(C)CC2)nc(SCCCCCCCC)n1 [Compound S8N13D9]	13.4%	25.8%	13.9%	13.3%		
CCCCCCCCCCCCCCSc1nc(NCCN2CCOCC2)nc(SCCCCCCCCC)n1 [Compound S9S14D2]	7.3%		7.3%		14.3%	0.3%
CCCCCCCCCCCCCCCCSc1nc(NCCN2CCCCC2)nc(SCCCCCCCCC)n1 [Compound S9S16D4]	6.2%		6.2%		12.2%	1.2%
CCCCCCCCCCCCCCCSc1nc(NCCN2CCCCC2)nc(SCCCCCCCCC)n1 [Compound S9S15D4]	5.8%		5.8%		11.8%	2.1%
CCCCCCCCCCCCCCSc1nc(NCCN2CCCCC2)nc(SCCCCCCCCC)n1 [Compound S9S14D4]	3.6%		3.6%		7.2%	0.7%
CCCCCCCCCCCCSc1nc(NCCN2CCCCC2)nc(SCCCCCCCCC)n1 [Compound S9S12D4]	0.0%		0.0%		0.0%	0.6%
CCCCCCCCCCCCCCCCSc1nc(NCCN2CCOCC2)nc(SCCCCCCCCC)n1 [Compound S9S16D2]	0.7%		0.7%		1.5%	0.0%
CCCCCCCCCCCCSc1nc(NCCN(CC)CC)nc(SCCCCCCCCC)n1 [Compound S9S12D7]	2.7%		2.7%		5.3%	3.4%
CCCCCCCCCCCCSc1nc(NCCN(C)C)nc(SCCCCCCCCC)n1 [Compound S9S12D1]	7.9%		7.9%		14.6%	0.8%
CCCCCCCCCCCCCCCCSc1nc(NCCN(C)C)nc(SCCCCCCCCC)n1 [Compound S9S16D1]	0.0%		0.0%		0.0%	0.0%
